Results from patent US6339042B1, “Herbicidal N-cyclohexadienyl heteroaryloxyacetamides” (American Cyanamid Co., priority 1999, dated 2002).

Columns and labels:
Conditions in all cases: three weeks after treatment
[1] = system: Apera spica venti; experiment: Post-emergence herbicidal evaluation, APESV
[2] = system: Glycine max; experiment: Post-emergence herbicidal evaluation, GLXMA
[3] = system: Apera spica venti; experiment: Pre-emergence herbicidal evaluation, APESV; type: in vivo
Text: (§1) The treated pots are then placed on greenhouse benches, watered and cared for in accordance with conventional greenhouse procedures.

[4] = system: Echinochloa crus-galli; experiment: Pre-emergence herbicidal evaluation, ECHCG; type: in vivo
Text: as §1

[5] = system: Alopecurus myosuroides; experiment: Post-emergence herbicidal evaluation, ALOMY
Protocol: (§2) The compounds of the invention are tested for pre- and post-emergence herbicidal activity.
(§3) Each pot is examined three weeks after treatment and phytotoxicity is assessed according to the rating system set forth below.
(§4) These acetone solutions are diluted with water and the resulting formulations applied at dosage levels equivalent of about 0.4 to 0.1 kg per hectare of test compound per pot. After spraying the plants are placed on greenhouse benches and are cared for in the usual manner, commensurate with conventional greenhouse practices.

[6] = system: Amaranthus tuberculatus; experiment: Pre-emergence herbicidal evaluation, AMATA; type: in vivo
Text: as §1

[7] = system: Zea mays; experiment: Pre-emergence herbicidal evaluation, ZEAMX; type: in vivo
Text: as §1

[8] = system: Oryza sativum; experiment: Pre-emergence herbicidal evaluation, ORYSA; type: in vivo
Text: as §1

[9] = system: Lolium perenne; experiment: Post-emergence herbicidal evaluation, LOLPE
[10] = system: Oryza sativum; experiment: Post-emergence herbicidal evaluation, ORYSA
[11] = system: Setaria viridis; experiment: Post-emergence herbicidal evaluation, SETVI
[12] = system: Zea mays; experiment: Post-emergence herbicidal evaluation, ZEAMX
Protocol: as §3, §4

[13] = system: Hordeum vulgare; experiment: Pre-emergence herbicidal evaluation, HORVW; type: in vivo
Text: as §1

[14] = system: Hordeum vulgare; experiment: Post-emergence herbicidal evaluation, HORVW
[15] = system: Galium aparine; experiment: Post-emergence herbicidal evaluation, GALAP
[16] = system: Amaranthus tuberculatus; experiment: Post-emergence herbicidal evaluation, AMATA; type: in vivo
[17] = system: Glycine max; experiment: Pre-emergence herbicidal evaluation, GLXMA; type: in vivo
Text: as §1

[18] = system: Echinochloa crus-galli; experiment: Post-emergence herbicidal evaluation, ECHCG
Protocol: as §2, §3, §4

[19] = system: Alopecurus myosuroides; experiment: Pre-emergence herbicidal evaluation, ALOMY; type: in vivo
Text: as §1

[20] = system: Lolium perenne; experiment: Pre-emergence herbicidal evaluation, LOLPE; type: in vivo
Text: as §1

[21] = system: Setaria viridis; experiment: Pre-emergence herbicidal evaluation, SETVI; type: in vivo
Text: as §1

[22] = system: Triticum aestivum; experiment: Post-emergence herbicidal evaluation, TRZAW
[23] = system: Triticum aestivum; experiment: Pre-emergence herbicidal evaluation, TRZAW; type: in vivo
Text: as §1

SMILES: CCc1nnc(OCC(=O)N(C)C2=CC(C)(C)CC(C)=C2)s1 [Example 5]
- phytotoxicity rating APESV ([1]; 0.100 kg/ha): 0 (0 - No effect)
- phytotoxicity rating APESV ([1]; 0.200 kg/ha): 0 (0 - No effect)
- phytotoxicity rating APESV ([1]; 0.400 kg/ha): 1 (1 - Trace effect)
- phytotoxicity rating GLXMA ([2]; 0.100 kg/ha): 5 (5 - Definite injury)
- phytotoxicity rating GLXMA ([2]; 0.200 kg/ha): 5 (5 - Definite injury)
- phytotoxicity rating GLXMA ([2]; 0.400 kg/ha): 5 (5 - Definite injury)
- phytotoxicity rating APESV ([3]; 0.400 kg/ha): 3 (3 - Moderate effect)
- phytotoxicity rating APESV ([3]; 0.800 kg/ha): 7 (7 - Good herbicidal effect)
- phytotoxicity rating ECHCG ([4]; 0.100 kg/ha): 2 (2 - Slight effect)
- phytotoxicity rating ECHCG ([4]; 0.200 kg/ha): 7 (7 - Good herbicidal effect)
- phytotoxicity rating ECHCG ([4]; 0.400 kg/ha): 8 (8 - Approaching complete kill)
- phytotoxicity rating ECHCG ([4]; 0.800 kg/ha): 9 (9 - Complete kill)
- phytotoxicity rating ALOMY ([5]; 0.100 kg/ha): 0 (0 - No effect)
- phytotoxicity rating ALOMY ([5]; 0.200 kg/ha): 2 (2 - Slight effect)
- phytotoxicity rating ALOMY ([5]; 0.400 kg/ha): 7 (7 - Good herbicidal effect)
- phytotoxicity rating AMATA ([6]; 0.100 kg/ha): 0 (0 - No effect)
- phytotoxicity rating AMATA ([6]; 0.200 kg/ha): 0 (0 - No effect)
- phytotoxicity rating AMATA ([6]; 0.400 kg/ha): 1 (1 - Trace effect)
- phytotoxicity rating AMATA ([6]; 0.800 kg/ha): 3 (3 - Moderate effect)
- phytotoxicity rating ZEAMX ([7]; 0.100 kg/ha): 0 (0 - No effect)
- phytotoxicity rating ZEAMX ([7]; 0.200 kg/ha): 0 (0 - No effect)
- phytotoxicity rating ZEAMX ([7]; 0.400 kg/ha): 0 (0 - No effect)
- phytotoxicity rating ZEAMX ([7]; 0.800 kg/ha): 6 (6 - Herbicidal effect)
- phytotoxicity rating ORYSA ([8]; 0.100 kg/ha): 1 (1 - Trace effect)
- phytotoxicity rating ORYSA ([8]; 0.200 kg/ha): 2 (2 - Slight effect)
- phytotoxicity rating ORYSA ([8]; 0.400 kg/ha): 4 (4 - Injury)
- phytotoxicity rating ORYSA ([8]; 0.800 kg/ha): 5 (5 - Definite injury)
- phytotoxicity rating LOLPE ([9]; 0.100 kg/ha): 0 (0 - No effect)
- phytotoxicity rating LOLPE ([9]; 0.200 kg/ha): 1 (1 - Trace effect)
- phytotoxicity rating LOLPE ([9]; 0.400 kg/ha): 4 (4 - Injury)
- phytotoxicity rating ORYSA ([10]; 0.100 kg/ha): 0 (0 - No effect)
- phytotoxicity rating ORYSA ([10]; 0.200 kg/ha): 1 (1 - Trace effect)
- phytotoxicity rating ORYSA ([10]; 0.400 kg/ha): 1 (1 - Trace effect)
- phytotoxicity rating SETVI ([11]; 0.100 kg/ha): 0 (0 - No effect)
- phytotoxicity rating SETVI ([11]; 0.200 kg/ha): 0 (0 - No effect)
- phytotoxicity rating SETVI ([11]; 0.400 kg/ha): 0 (0 - No effect)
- phytotoxicity rating ZEAMX ([12]; 0.100 kg/ha): 0 (0 - No effect)
- phytotoxicity rating ZEAMX ([12]; 0.200 kg/ha): 0 (0 - No effect)
- phytotoxicity rating ZEAMX ([12]; 0.400 kg/ha): 0 (0 - No effect)
- phytotoxicity rating HORVW ([13]; 0.100 kg/ha): 0 (0 - No effect)
- phytotoxicity rating HORVW ([13]; 0.200 kg/ha): 2 (2 - Slight effect)
- phytotoxicity rating HORVW ([13]; 0.400 kg/ha): 3 (3 - Moderate effect)
- phytotoxicity rating HORVW ([13]; 0.800 kg/ha): 4 (4 - Injury)
- phytotoxicity rating HORVW ([14]; 0.100 kg/ha): 0 (0 - No effect)
- phytotoxicity rating HORVW ([14]; 0.200 kg/ha): 0 (0 - No effect)
- phytotoxicity rating HORVW ([14]; 0.400 kg/ha): 0 (0 - No effect)
- phytotoxicity rating GALAP ([15]; 0.100 kg/ha): 0 (0 - No effect)
- phytotoxicity rating GALAP ([15]; 0.200 kg/ha): 0 (0 - No effect)
- phytotoxicity rating GALAP ([15]; 0.400 kg/ha): 4 (4 - Injury)
- phytotoxicity rating AMATA ([16]; 0.100 kg/ha): 0 (0 - No effect)
- phytotoxicity rating AMATA ([16]; 0.200 kg/ha): 0 (0 - No effect)
- phytotoxicity rating AMATA ([16]; 0.400 kg/ha): 3 (3 - Moderate effect)
- phytotoxicity rating GLXMA ([17]; 0.100 kg/ha): 0 (0 - No effect)
- phytotoxicity rating GLXMA ([17]; 0.200 kg/ha): 0 (0 - No effect)
- phytotoxicity rating GLXMA ([17]; 0.400 kg/ha): 0 (0 - No effect)
- phytotoxicity rating GLXMA ([17]; 0.800 kg/ha): 1 (1 - Trace effect)
- phytotoxicity rating ECHCG ([18]; 0.100 kg/ha): 0 (0 - No effect)
- phytotoxicity rating ECHCG ([18]; 0.200 kg/ha): 0 (0 - No effect)
- phytotoxicity rating ECHCG ([18]; 0.400 kg/ha): 0 (0 - No effect)
- phytotoxicity rating ALOMY ([19]; 0.100 kg/ha): 3 (3 - Moderate effect)
- phytotoxicity rating ALOMY ([19]; 0.200 kg/ha): 8 (8 - Approaching complete kill)
- phytotoxicity rating ALOMY ([19]; 0.400 kg/ha): 9 (9 - Complete kill)
- phytotoxicity rating ALOMY ([19]; 0.800 kg/ha): 9 (9 - Complete kill)
- phytotoxicity rating LOLPE ([20]; 0.100 kg/ha): 5 (5 - Definite injury)
- phytotoxicity rating LOLPE ([20]; 0.200 kg/ha): 5 (5 - Definite injury)
- phytotoxicity rating LOLPE ([20]; 0.400 kg/ha): 5 (5 - Definite injury)
- phytotoxicity rating LOLPE ([20]; 0.800 kg/ha): 7 (7 - Good herbicidal effect)
- phytotoxicity rating SETVI ([21]; 0.100 kg/ha): 0 (0 - No effect)
- phytotoxicity rating SETVI ([21]; 0.200 kg/ha): 3 (3 - Moderate effect)
- phytotoxicity rating SETVI ([21]; 0.400 kg/ha): 7 (7 - Good herbicidal effect)
- phytotoxicity rating SETVI ([21]; 0.800 kg/ha): 9 (9 - Complete kill)
- phytotoxicity rating TRZAW ([22]; 0.100 kg/ha): 0 (0 - No effect)
- phytotoxicity rating TRZAW ([22]; 0.200 kg/ha): 0 (0 - No effect)
- phytotoxicity rating TRZAW ([22]; 0.400 kg/ha): 1 (1 - Trace effect)
- phytotoxicity rating TRZAW ([23]; 0.100 kg/ha): 0 (0 - No effect)
- phytotoxicity rating TRZAW ([23]; 0.200 kg/ha): 0 (0 - No effect)
- phytotoxicity rating TRZAW ([23]; 0.400 kg/ha): 1 (1 - Trace effect)
- phytotoxicity rating TRZAW ([23]; 0.800 kg/ha): 1 (1 - Trace effect)
